Measured values as given in patent US8772269B2, “Use of sulfonamide-including compounds in combination with angiogenesis inhibitors” (Eisai R&D Management Co., Ltd., priority 2004, dated 2014).

Legend:
[1] = system: human renal cancer cell line 786-O; experiment: Subcutaneous transplantation model of 786-O, E7820 and Compound A; assay type: in vivo, nude mice; settings: E7820 100 mg/kg twice a day, Compound A 100 mg/kg once a day, oral, 2 weeks; alone or combined
Procedure: Human renal cancer cell line 786-O (purchased from ATCC) was cultured in RPMI1640 (containing 10% FBS) to about 80% confluency in a 5% carbon dioxide incubator, and the cells were collected by trypsin-EDTA. The cells were diluted with 50% Matrigel-containing phosphate buffer to prepare a 1×10^8 cells/mL suspension, and the resulting cell suspension was subcutaneously transplanted in 0.1 mL volumes to nude mice at the side of their body. Starting from 7 days after the transplantation, E7820 (100 mg/kg, given twice a day for 2 weeks) and 4-(3-chloro-4-(cyclopropylaminocarbonyl)aminophenoxy)-7-methoxy-6-quinolinecarboxamide (100 mg/kg, given once a day for 2 weeks) were administered alone or in combination by the oral route. Tumor long and short axes were measured with a digimatic caliper (Mitsutoyo) and used to calculate both tumor volume and relative tumor volume according to the following equations. Tumor volume TV=tumor long axis(mm)×tumor short axis^2(mm^2)/2 Relative tumor volume RTV=tumor volume at the day of measurement/tumor volume at the first day of administration

HCT116-C9 = experiment: Cell growth inhibition assay (MTT method), cross resistance study; assay type: cell-based, human; settings: Example 5, HCT116-C9, 72 hours, read-out: antiproliferative activity IC50
Excerpt: E7070-resistant sub-clonal cell lines were used to evaluate the antiproliferative activity of E7820, LY186641, LY295501, LY-ASAP and CQS. HCT116-C9 was a sub-clone separated from the human colon cancer cell line HCT116 (American Type Culture Collection, Manassas, Va., U.S.A.), while HCT116-C9-C1 and HCT116-C9-C4 were E7070-resistant sub-clonal cell lines obtained by culturing this HCT116-C9 in the presence of gradually increasing concentrations of E7070 (Molecular Cancer Therapeutics, 2002, 1, 275-286).
These 3 cell lines HCT116-C9, HCT116-C9-C1 and HCT116-C9-C4 were each seeded at 3000 cells/well in 96-well microplates (flat-bottomed) (50 μl/well). After 24 hours, a 3-fold dilution series of each compound was added (50 μl/well). After 72 hours, the cell growth inhibitory activity was evaluated by the MTT method (Mossmann T., J. Immunol. Methods, 1983, 65, 55-63). The least squares method was used to determine the 50% growth inhibitory concentration of each compound against each cancer cell line.
Exactly the same procedure as used in Example 4 was repeated to evaluate the antiproliferative activity of both LY573636 and E7070 using E7070-resistant sub-clonal cell lines.

[2] = system: human colon cancer cell line Colo320DM; experiment: Subcutaneous transplantation model of Colo320DM, E7070 and bevacizumab; assay type: in vivo, nude mice; settings: E7070 40 mg/kg/day i.v. Day 1-5, bevacizumab 25 mg/kg/day i.v. Days 1, 5, 8, 12; for Relative tumor volume (RTV) Mean ± SD: at Day 23; for Tx4 Mean ± SD: time for tumor to grow 4-fold of initial volume
Procedure: Human colon cancer cell line Colo320DM (purchased from ATCC) was cultured in RPMI1640 (containing 10% FBS) to about 80% confluency in a 5% carbon dioxide incubator, and the cells were collected by trypsin-EDTA. The cells were diluted with Hanks balanced solution to prepare a 5×10^7 cells/ml suspension, and the resulting cell suspension was subcutaneously transplanted in 0.1 mL volumes to nude mice at the side of their body.
After the transplantation, from the time point when the mean tumor volume reached 259 mm^3, E7070 (40 mg/kg/day) and bevacizumab (25 mg/kg/day) were administered alone or in combination.
E7070 alone was administered once a day for 5 days (Day 1 to Day 5) by the intravenous route. Bevacizumab alone was administered twice a week for 2 weeks (Days 1, 5, 8 and 12) by the intravenous route.
The co-treated group was administered with E7070 at Day 1 to Day 5 by the intravenous route and with bevacizumab at Days 1, 5, 8 and 12 by the intravenous route.
After starting the administration, tumor long and short axes were measured at a frequency of twice a week with a digimatic caliper (Mitsutoyo) and used to calculate the tumor volume according to the following equation. Tumor volume TV=tumor long axis(mm)×tumor short axis^2(mm^2)/2
For determination of the anti-tumor effect, the values of the following two parameters were used.
Tx4: Time (days) required for a tumor to grow 4-fold of the initial tumor volume
RTV: Relative tumor volume (RTV) at Day 23* • * RTV=tumor volume at Day 23/initial tumor volume at Day 1
Likewise, if the co-treated group produces a higher anti-tumor effect than the groups treated with either drug alone and has a significance level of 0.05<P<0.10, E7070 and bevacizumab are determined to have a synergistic tendency.

[3] = system: Human umbilical vein endothelial cells; experiment: VEGF-induced cell proliferation in vascular endothelial cell proliferation assay (in vitro); assay type: cell-based; settings: 3 days, absorbance relative to untreated cells
Procedure: Human umbilical vein endothelial cells were suspended in 2% FBS-containing Human endothelial-SFM Basal Growth Medium (Invitrogen Corporation) and adjusted to 1×10^4 cells/ml. The resulting cell suspension was dispensed in 100 μl aliquots into each well of 96-well plates and cultured at 37° C. in a 5% carbon dioxide incubator. On the next day, a solution containing E7820, a solution containing bevacizumab (Avastin®, purchased from Genentech), and a solution containing both E7820 and bevacizumab were respectively diluted with Human endothelial-SFM Basal Growth Medium containing 20 ng/ml VEGF (Genzyme Techne Corp.) and 2% FBS. The resulting diluted solutions were then added to the individual wells of the plates in a volume of 100 μl/well, followed by further culturing.
The combined effect was calculated according to the equation of Chou et al. (Adv. Enzyme Regul., 22, 27-55, 1984).

[4] = system: human colon cancer cell line Colo320DM; experiment: Subcutaneous transplantation model of Colo320DM, E7820 and bevacizumab; assay type: in vivo, nude mice; settings: E7820 200 mg/kg twice a day oral 3 weeks; bevacizumab 25 mg/kg twice a week intravenous 3 weeks; alone or combined
Procedure: Human colon cancer cell line Colo320DM (purchased from Dainippon Pharmaceutical Co., Ltd., Japan) was cultured at 37° C. in RPMI1640 (containing 10% FBS) to about 80% confluency in a 5% carbon dioxide incubator, and the cells were collected by trypsin-EDTA. The cells were diluted with 50% Matrigel-containing phosphate buffer to prepare a 5×10^7 cells/mL suspension, and the resulting cell suspension was subcutaneously transplanted in 0.1 mL volumes to nude mice at the side of their body. Starting from 7 days after the transplantation, E7820 (200 mg/kg, given twice a day for 3 weeks by the oral route) and bevacizumab (25 mg/kg, given twice a week for 3 weeks by the intravenous route) were administered. Tumor long and short axes were measured with a digimatic caliper (Mitsutoyo) and used to calculate both tumor volume and relative tumor volume according to the following equations. Tumor volume TV=tumor long axis(mm)×tumor short axis^2(mm^2)/2 Relative tumor volume RTV=tumor volume at the day of measurement/tumor volume at the first day of administration

[5] = compound concentration 0.0006 μg/μl
[6] = compound concentration 0.0012 μg/μl
[7] = compound concentration 0.0024 μg/μl
[8] = compound concentration 0.0049 μg/μl
[9] = compound concentration 0.0098 μg/μl
[10] = compound concentration 0.0195 μg/μl
[11] = compound concentration 0.0391 μg/μl
[12] = compound concentration 0.0781 μg/μl
[13] = compound concentration 0.1563 μg/μl
[14] = compound concentration 0.3125 μg/μl
[15] = compound concentration 0.6250 μg/μl
[16] = compound concentration 1.2500 μg/μl
[17] = compound concentration 2.5000 μg/μl
[18] = compound concentration 5.0000 μg/μl
[19] = compound concentration 10.0000 μg/μl
[20] = compound concentration 20.0000 μg/μl
[21] = compound concentration 40.0000 μg/μl

Molecule | Relative tumor volume at Day 22 Mean ± SD [1] | Relative tumor volume (RTV) Mean ± SD [2] | Tx4 Mean ± SD [2] [days] | % of control [3, 5] | % of control [3, 6] | % of control [3, 7] | % of control [3, 8] | % of control [3, 9] | % of control [3, 10] | % of control [3, 11] | % of control [3, 12] | % of control [3, 13] | % of control [3, 14] | % of control [3, 15] | % of control [3, 16] | % of control [3, 17] | % of control [3, 18] | % of control [3, 19] | % of control [3, 20] | % of control [3, 21] | other results
COc1cc2nccc(Oc3ccc(NC(=O)NC4CC4)c(Cl)c3)c2cc1C(N)=O [Compound A, 4-(3-chloro-4-(cyclopropylaminocarbonyl)aminophenoxy)-7-methoxy-6-quinolinecarboxamide] | 0.59 ± 0.12 |  |  |  |  |  |  |  |  |  |  |  |  |  |  |  |  |  |  |  | 
NS(=O)(=O)c1ccc(S(=O)(=O)Nc2cccc3c(Cl)c[nH]c23)cc1 [E7070, N-(3-chloro-1H-indol-7-yl)-4-sulfamoylbenzenesulfonamide] |  | 2.70 ± 0.97 | 27.0 ± 3.4 |  |  |  |  |  |  |  |  |  |  |  |  |  |  |  |  |  | IC50 (HCT116-C9): 127 nM
Cc1ccc(NS(=O)(=O)c2cccc(C#N)c2)c2[nH]cc(C#N)c12 [E7820, N-(3-cyano-4-methyl-1H-indol-7-yl)-3-cyanobenzenesulfonamide] | 0.80 ± 0.13 |  |  | 98.9 % of control | 102.2 % of control | 104.8 % of control | 99.4 % of control | 97.2 % of control | 88.9 % of control | 87.9 % of control | 72.3 % of control | 60.5 % of control | 56.2 % of control | 57.2 % of control | 47.8 % of control | 41.4 % of control | 37.4 % of control | 34.4 % of control | 33.1 % of control | 12.5 % of control | 
Bevacizumab: human anti-VEGF (vascular endothelial growth factor) monoclonal antibody, purchased from Genentech under the name Avastin [reference compound] |  | 2.84 ± 0.68 | 26.3 ± 2.8 | 96.0 % of control | 94.2 % of control | 89.5 % of control | 88.3 % of control | 80.8 % of control | 78.8 % of control | 71.0 % of control | 68.5 % of control | 64.2 % of control | 62.0 % of control | 60.1 % of control | 56.1 % of control | 51.8 % of control | 54.8 % of control | 53.2 % of control | 50.4 % of control | 51.7 % of control | Relative tumor volume at Day 22 Mean ± SD [4]: 5.1 ± 0.8
